Drawing on US9067934B2, “Bicyclic pyridinones” (Pfizer Inc., priority 2011, dated 2015), this text covers IC50 for 22 molecules.

As a reminder, the IC50 is the concentration that gives 50% inhibition.

Structures can show the parent of a compound that is named as a salt.

The experiment relates to production of amyloid beta protein Aβ(1-42) (γ-secretase) in human WT-APP overexpressing CHO cells. As to the kind of experiment: Cell-Based γ-Secretase Assay with ELISA Readout. Conditions: human WT-APP overexpressing CHO cells, ~24 hours at 37° C., Aβ(1-42) ELISA; footnotes: a = geometric mean of >15 determinations, b = single determination, c = geometric mean of 7-15 determinations; read-out: Aβ 42B IC50 (Geometric Mean of 2-6 Determinations). Here is the method: Cell-Based γ-Secretase Assay with ELISA Readout
The ability of compounds to modulate production of amyloid beta protein Aβ(1-42) was determined using human WT-APP overexpressing CHO cells. Cells were plated at 22,000 cells/100 μL well in 96 well tissue culture treated, clear plates (Falcon) in DMEM/F12 based medium and incubated for 24 hours at 37° C. Compounds for testing were diluted in 100% DMSO to achieve an eleven points, half log, dose response for IC50 determinations. Compounds were added in fresh medium to achieve 1% final DMSO. Appropriate vehicle or inhibitor controls were added into control wells individually to obtain minimum or maximum inhibition values, respectively, for the assay signal window before the plates were incubated for ˜24 hours at 37° C. This procedure produces conditioned media in each well which is tested for Aβ(1-42) levels in the ELISA detection step described next. The remaining cell cultures in each well are also tested for cell toxicity as described below.
Coating of ELISA assay plates was initiated by addition of 50 μL/well of an in-house Aβ(1-42) specific antibody at (3 μg/mL) in 0.1 M NaHCO3 (pH 9.0) into black 384-well Maxisorp® plates (Nunc) and incubated overnight at 4° C. The capture antibody was then aspirated from the ELISA assay plates and plates were washed 4×100 μL with Wash Buffer (Dulbecco's PBS, 0.05% Tween 20). 90 μL/well of Blocking Buffer (Dulbecco's PBS, 1.0% BSA (Sigma A7030)) was then added to plates. Ambient temperature incubation was allowed to proceed for a minimum of two hours. Blocking buffer was then removed and 20 μL/well Assay Buffer (Dulbecco's PBS, 1.0% BSA (Sigma A7030), 0.05% Tween 20) was then added. At this point, 40 μL (in duplicate) of experimental conditioned media (described above) were transferred into wells of the blocked ELISA plates containing the capture antibody, followed by overnight incubation at 4° C. Cell toxicity was also measured in the corresponding remaining cells after removal of the conditioned media for the Aβ(1-42) assay by a colorimetric cell proliferation assay (CellTiter 96® AQueous One Solution Cell Proliferation Assay, Promega) according to the manufacturer's instructions.
After overnight incubation of the ELISA assay plates at 4° C., unbound Aβ peptides were removed via (4×100 μL) washes with Wash Buffer. Europium (Eu) labeled (custom labeled, Perkin Elmer) Aβ(1-16) 6e10 Monoclonal Antibody (Covance #SIG-39320) was added, (50 μL/well Eu-6e10 @ 1:10,000, 20 uM EDTA) in Assay Buffer. Incubation at ambient temperature for a minimum of 2 hours was followed by (4×100 μL) washes with Wash Buffer, before 30 μL/well of Delfia Enhancement Solution (Perkin Elmer) was added. Following an one hour ambient temperature incubation, the plates were read on an EnVision plate reader (Perkin Elmer) using standard DELFIA TRF settings. Data analysis including inhibitory IC50 determination was performed using nonlinear regression fit analysis (in-house software) and the appropriate plate mean values for the maximum and minimum inhibition controls.
(In general: ELISA stands for enzyme-linked immunosorbent assay.)
Take `Cc1cn(-c2ccc3n(c2=O)CCN(CCOc2ccccc2-c2ccc(C#N)cc2)C3=O)cn1` [Example 90, 2′-{2-[7-(4-methyl-1H-imidazol-1-yl)-1,6-dioxo-1,3,4,6-tetrahydro-2H-pyrido[1,2-a]pyrazin-2-yl]ethoxy}biphenyl-4-carbonitrile, formate salt]: the 50% inhibitory concentration (IC50) turned out to be 147 nM. The result for `Cc1cn(-c2ccc3n(c2=O)CCN(CC(C)(C)Oc2cccc(Cl)c2Cl)C3=O)cn1` [Example 4, 2-[2-(2,3-dichlorophenoxy)-2-methylpropyl]-7-(4-methyl-1H-imidazol-1-yl)-3,4-dihydro-2H-pyrido[1,2-a]pyrazine-1,6-dione] reads 146 nM; that for `Cc1cn(-c2ccc3n(c2=O)CCN(C(C)C(C)Oc2ccccc2S(F)(F)(F)(F)F)C3=O)cn1` (single isomer, unassigned) [Example 125, 7-(4-methyl-1H-imidazol-1-yl)-2-{3-[2-(pentafluoro-λ^6-sulfanyl)phenoxy]butan-2-yl}-3,4-dihydro-2H-pyrido[1,2-a]pyrazine-1,6-dione], 653 nM; that for `COc1ccc(-c2cc(C(F)(F)F)[nH]n2)c(OCCN2CCn3c(ccc(-n4cnc(C)c4)c3=O)C2=O)c1` [Example 54, 2-(2-{5-methoxy-2-[5-(trifluoromethyl)-1H-pyrazol-3-yl]phenoxy}ethyl)-7-(4-methyl-1H-imidazol-1-yl)-3,4-dihydro-2H-pyrido[1,2-a]pyrazine-1,6-dione], 215 nM. Under `Cc1cn(-c2ccc3n(c2=O)CCN(CCOc2ccc(Cl)c(Cl)c2Cl)C3=O)cn1` [Example 27, 7-(4-methyl-1H-imidazol-1-yl)-2-[2-(2,3,4-trichlorophenoxy)ethyl]-3,4-dihydro-2H-pyrido[1,2-a]pyrazine-1,6-dione] stands 103 nM.

Take `Cc1cn(-c2ccc3n(c2=O)CCN(CCOc2ncc(Cl)c4ccc(F)cc24)C3=O)cn1` [Example 99, 2-{2-[(4-chloro-7-fluoroisoquinolin-1-yl)oxy]ethyl}-7-(4-methyl-1H-imidazol-1-yl)-3,4-dihydro-2H-pyrido[1,2-a]pyrazine-1,6-dione, trifluoroacetate salt]: the concentration for half-maximal inhibition (IC50) stood at 25.3 nM. The result for `Cc1cn(-c2ccc3n(c2=O)CCN(CCOc2ccc(C(F)(F)F)cc2C(F)(F)F)C3=O)cn1` [Example 29, 2-{2-[2,4-bis(trifluoromethyl)phenoxy]ethyl}-7-(4-methyl-1H-imidazol-1-yl)-3,4-dihydro-2H-pyrido[1,2-a]pyrazine-1,6-dione] reads 154 nM. Under `Cc1cn(-c2ccc3n(c2=O)CCN(CCOc2ccc(Cl)cc2C24CC(C2)C4)C3=O)cn1` [Example 110, 2-{2-[2-(bicyclo[1.1.1]pent-1-yl)-4-chlorophenoxy]ethyl}-7-(4-methyl-1H-imidazol-1-yl)-3,4-dihydro-2H-pyrido[1,2-a]pyrazine-1,6-dione] stands 14.5 nM; under `COc1ccc2c(OCCN3CCn4c(ccc(-n5cnc(C)c5)c4=O)C3=O)cccc2c1F` [Example 64, 2-{2-[(5-fluoro-6-methoxy-1-naphthyl)oxy]ethyl}-7-(4-methyl-1H-imidazol-1-yl)-3,4-dihydro-2H-pyrido[1,2-a]pyrazine-1,6-dione, trifluoroacetate salt], 42.4 nM.

For the molecule `Cc1cn(-c2ccc3n(c2=O)CCN([C@@H](C)COc2ccc(F)cc2C(F)(F)F)C3=O)cn1` [Example 57, 2-{(1S)-2-[4-fluoro-2-(trifluoromethyl)phenoxy]-1-methylethyl}-7-(4-methyl-1H-imidazol-1-yl)-3,4-dihydro-2H-pyrido[1,2-a]pyrazine-1,6-dione], the half-maximal inhibitory concentration (IC50) came to 113 nM. `Cc1cn(-c2ccc3n(c2=O)CCN(CCOc2ccc(F)c(Cl)c2C(F)(F)F)C3=O)cn1` [Example 67, 2-{2-[3-chloro-4-fluoro-2-(trifluoromethyl)phenoxy]ethyl}-7-(4-methyl-1H-imidazol-1-yl)-3,4-dihydro-2H-pyrido[1,2-a]pyrazine-1,6-dione]: the IC50 was found to be 58.4 nM. Under `Cc1cn(-c2ccc3n(c2=O)CCN(CCOc2ccnc4cc(C(F)(F)F)c(Cl)cc24)C3=O)cn1` [Example 47, 2-(2-{[6-chloro-7-(trifluoromethyl)quinolin-4-yl]oxy}ethyl)-7-(4-methyl-1H-imidazol-1-yl)-3,4-dihydro-2H-pyrido[1,2-a]pyrazine-1,6-dione] stands 9.48 nM; under `Cc1cn(-c2ccc3n(c2=O)CCN(CCOc2nccc4oc5ccccc5c24)C3=O)cn1` [Example 74, 2-[2-([1]benzofuro[3,2-c]pyridin-1-yloxy)ethyl]-7-(4-methyl-1H-imidazol-1-yl)-3,4-dihydro-2H-pyrido[1,2-a]pyrazine-1,6-dione], 38.5 nM. Under `Cc1cc(-c2ccc3n(c2=O)CCN(CCOc2cccc4ccc(F)cc24)C3=O)ccn1` [Example 115, 2-{2-[(7-fluoronaphthalen-1-yl)oxy]ethyl}-7-(2-methylpyridin-4-yl)-3,4-dihydro-2H-pyrido[1,2-a]pyrazine-1,6-dione] stands 489 nM; under `Cc1cn(-c2ccc3n(c2=O)CCN(CCOc2ccccc2-c2csc(C(F)(F)F)n2)C3=O)cn1` [Example 40, 7-(4-methyl-1H-imidazol-1-yl)-2-(2-{2-[2-(trifluoromethyl)-1,3-thiazol-4-yl]phenoxy}ethyl)-3,4-dihydro-2H-pyrido[1,2-a]pyrazine-1,6-dione], 19.6 nM.

As for `Cc1cn(-c2ccc3n(c2=O)CCN(CCOc2ccccc2-c2cc(C(F)(F)F)[nH]n2)C3=O)cn1` [Example 49, 7-(4-methyl-1H-imidazol-1-yl)-2-(2-{2-[5-(trifluoromethyl)-1H-pyrazol-3-yl]phenoxy}ethyl)-3,4-dihydro-2H-pyrido[1,2-a]pyrazine-1,6-dione], the concentration for half-maximal inhibition (IC50) was found to be 178 nM. The result for `Cc1cn(-c2ccc3n(c2=O)CCN(CCOc2cc(Cl)cc(Cl)c2Cl)C3=O)cn1` [Example 10, 7-(4-methyl-1H-imidazol-1-yl)-2-[2-(2,3,5-trichlorophenoxy)ethyl]-3,4-dihydro-2H-pyrido[1,2-a]pyrazine-1,6-dione] reads 127 nM; that for `Cc1cn(-c2ccc3n(c2=O)CCN(C(C)C(C)Oc2ccccc2S(F)(F)(F)(F)F)C3=O)cn1` (single isomer, unassigned) [Example 126, 7-(4-methyl-1H-imidazol-1-yl)-2-{3-[2-(pentafluoro-λ^6-sulfanyl)phenoxy]butan-2-yl}-3,4-dihydro-2H-pyrido[1,2-a]pyrazine-1,6-dione], 20.1 nM; that for `Cc1ccc(OCCN2CCn3c(ccc(-n4cnc(C)c4)c3=O)C2=O)c(-c2cc(C(F)(F)F)on2)c1` [Example 38, 7-(4-methyl-1H-imidazol-1-yl)-2-(2-{4-methyl-2-[5-(trifluoromethyl)isoxazol-3-yl]phenoxy}ethyl)-3,4-dihydro-2H-pyrido[1,2-a]pyrazine-1,6-dione, trifluoroacetate salt], 293 nM. The result for `Cc1cn(-c2ccc3n(c2=O)CCN(CCOc2cccc4[nH]c(C(F)(F)F)cc24)C3=O)cn1` [Example 101, 7-(4-methyl-1H-imidazol-1-yl)-2-(2-{[2-(trifluoromethyl)-1H-indol-4-yl]oxy}ethyl)-3,4-dihydro-2H-pyrido[1,2-a]pyrazine-1,6-dione] reads 456 nM; that for `Cc1cn(-c2ccc3n(c2=O)CCN(CCOc2cccc(Oc4ccccc4)c2)C3=O)cn1` [Example 19, 7-(4-methyl-1H-imidazol-1-yl)-2-[2-(3-phenoxyphenoxy)ethyl]-3,4-dihydro-2H-pyrido[1,2-a]pyrazine-1,6-dione], 203 nM. Under `Cc1cn(-c2ccc3n(c2=O)CCN(CCOc2ccc(F)c(C(F)(F)F)c2Cl)C3=O)cn1` [Example 35, 2-{2-[2-chloro-4-fluoro-3-(trifluoromethyl)phenoxy]ethyl}-7-(4-methyl-1H-imidazol-1-yl)-3,4-dihydro-2H-pyrido[1,2-a]pyrazine-1,6-dione, trifluoroacetate salt] stands 133 nM.
